From ChEMBL document CHEMBL5727860, “Bicyclic heteroaryl substituted compounds” (2020)

Target: T1, Proteinase-activated receptor 4 (Homo sapiens, UniProt Q96RI0)
T1 sequence (Q96RI0 whole entry): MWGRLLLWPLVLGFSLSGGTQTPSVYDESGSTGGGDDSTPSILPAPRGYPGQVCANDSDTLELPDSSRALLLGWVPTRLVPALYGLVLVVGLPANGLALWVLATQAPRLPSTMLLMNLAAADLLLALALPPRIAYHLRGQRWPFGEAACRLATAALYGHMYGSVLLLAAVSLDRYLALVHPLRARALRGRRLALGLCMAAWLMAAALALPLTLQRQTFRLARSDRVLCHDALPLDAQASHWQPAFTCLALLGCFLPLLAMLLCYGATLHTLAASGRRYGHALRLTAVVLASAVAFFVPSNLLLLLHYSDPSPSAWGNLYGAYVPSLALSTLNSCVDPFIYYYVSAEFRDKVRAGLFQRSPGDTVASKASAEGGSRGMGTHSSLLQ
Test: FLIPR Assay in PAR4-Expressing HEK293 Cells: FLIPR-based calcium mobilization assay in HEK293 cells was used to measure PAR4 antagonism agonism, and selectivity against PAR1. The activity of the PAR4 antagonists of the present invention were tested in PAR4 expressing cells by monitoring H-Ala-Phe(4-F)-[…]NH2-induced intracellular calcium mobilization. Counter screens for agonist activity and PAR1 antagonist activity were also performed. Briefly, PAR/PAR4-expressing HEK293 cells were grown in DMEM (Life Technology, Grand Island, N.Y.) containing 10% heat-inactivated FBS, 1% Penicillin-Streptomycin, 10 μg/mL blasticidin, and 100 μg/mL Zeocin at 37° C. with 5% CO2. Cells were plated overnight prior to the experiment in a black 384-well Purecoat Amine clear bottom plate (Becton Dickinson Biosciences, San Jose, Calif.) at 10,000 cells/well in 30 μL growth medium and incubated in a humidified chamber at 37° C. with 5% CO2 overnight. Prior to compound addition, the cell medium was replaced with 40 μL of 1× calcium and magnesium-containing Hank's Balanced Saline Solution (HBSS) (with 20 mM HEPES) and 1:1000 diluted fluorescent calcium indicator (Codex Biosolutions, Gaithersburg, Md.). […]

SMILES | IC50
COc1ccc(NC(=O)O[C@H]2CCNC[C@H]2Oc2cc3sc(-c4cc(C)cc5nc(OC)cnc45)nc3cc2F)cn1 (racemic) | 980 nM
COc1cnc2c(-c3nc4cc(F)c(O[C@@H]5CC(F)(F)C[C@@H]5OC(=O)Nc5cnc(OCCO)nc5)cc4s3)cc(C)cc2c1 (relative stereo) | 20 nM
